Each structure is given as a SMILES string.

Data set [1] deals with allergic hypersensitivity induced by Nickel allergen (skin). As to the kind of experiment: Nickel-induced allergic contact dermatitis, topical treatment, blinded clinical score of skin lesion. Format: in vivo, human. The following applies: 4×140 μl of 50 mM Propionate in Locke-Ringer solution over 8 hours, 60 hours after last Nickel contact; vs Locke-Ringer control; n=2. Here is the method:
The study aimed at determining whether treatment with propionate promotes skin health following allergic hypersensitivity (particularly allergic contact dermatitis).
Allergic hypersensitivity was induced through contact sensitization with Nickel allergen over a 12 hour time period.
The sum of the four scores given blinded to each subject (n=2) yielded in the clinical score. The results can be seen in FIGS. 1 and 2.

The test system of data set [2] is wound infection of injured skin. As to the kind of experiment: Treatment of infected wound of injured skin. Format: in vivo. Particulars: skin treated with propionate vs skin treated with water. From the text: The study aimed at determining whether treatment with propionate promotes skin health of wound infection of injured skin.
For data set [3] the following is noted: in Locke-Ringer Solution.
Source text: • Identification: Sodium propionate (Sigma-Aldrich, Cat. P5436-100G) • Test Item Name for Report: Sodium propionate • Description: Hygroscopic white powder • Batch Number: Lot.

`CCC(=O)[O-].[Na+]` [Sodium propionate]: the “Clinical score of skin lesion (sum of four scores)” value in data set [1] is given as “clinical score was significantly reduced”. In addition, in data set [2], the “Appearance of skin lesions (FIG. 4)” value was “lesions are significantly reduced”. For the same molecule, the “Stability of Test Item in Solution” value in data set [3] is no less than 6 months.

The values above are taken from patent publication US20200360317A1, “CARBOXYLIC ACIDS FOR TREATING/PREVENTING A SKIN DISEASE” (Proponent Biotech GmbH, priority 2016, published 2020).
